“And” between values parts separate entries of the source, which are not always exact repeats. Equal entries are not always repeated. Toxic doses and inconclusive results are not listed. No stated cut-off is given here; in the data, active means T/C of 150% or more; inactive means T/C below 125%.
System: L1210 leukemia ip in BDF1 mice, survival T/C
Assay: NCI In Vivo Anticancer Drug Screen. Data for tumor model L1210 Leukemia (intraperitoneal) in B6D2F1 (BDF1) mice
Conditions: endpoint: mean survival time, higher = longer survival
How it was run: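 Tumor was transplanted into mice, which were then dosed with test compound or vehicle alone. Survival was recorded for each group, and the treated figure was expressed relative to the control figure.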

[1] = dose: 100.0 mg/kg/injection, schedule: Q01DX001 (ip), vehicle: saline
[2] = dose: 100.0 mg/kg/injection, schedule: Q01DX009 (ip), vehicle: Klucel (hydroxypropylcellulose) (HPC)
[3] = dose: 100.0 mg/kg/injection, schedule: Q04DX003 (ip), vehicle: Klucel (hydroxypropylcellulose) (HPC)
[4] = dose: 200.0 mg/kg/injection, schedule: Q01DX001 (ip), vehicle: saline
[5] = dose: 200.0 mg/kg/injection, schedule: Q01DX009 (ip), vehicle: Klucel (hydroxypropylcellulose) (HPC)
[6] = dose: 200.0 mg/kg/injection, schedule: Q04DX003 (ip), vehicle: Klucel (hydroxypropylcellulose) (HPC)
[7] = dose: 400.0 mg/kg/injection, schedule: Q01DX001 (ip), vehicle: saline
[8] = dose: 400.0 mg/kg/injection, schedule: Q01DX009 (ip), vehicle: Klucel (hydroxypropylcellulose) (HPC)
[9] = dose: 100.0 mg/kg/injection, schedule: Q04DX003 (ip), vehicle: saline with Tween-80
[10] = dose: 100.0 mg/kg/injection, schedule: Q01DX009 (ip), vehicle: saline with Tween-80
[11] = dose: 200.0 mg/kg/injection, schedule: Q01DX009 (ip), vehicle: saline with Tween-80
[12] = dose: 200.0 mg/kg/injection, schedule: Q04DX003 (ip), vehicle: saline with Tween-80
[13] = dose: 400.0 mg/kg/injection, schedule: Q01DX009 (ip), vehicle: saline with Tween-80
[14] = dose: 400.0 mg/kg/injection, schedule: Q04DX003 (ip), vehicle: saline with Tween-80
[15] = dose: 100.0 mg/kg/injection, schedule: Q04DX002 (ip), vehicle: Klucel (hydroxypropylcellulose) (HPC)
[16] = dose: 200.0 mg/kg/injection, schedule: Q04DX002 (ip), vehicle: Klucel (hydroxypropylcellulose) (HPC)
[17] = dose: 400.0 mg/kg/injection, schedule: Q04DX002 (ip), vehicle: Klucel (hydroxypropylcellulose) (HPC)
[18] = dose: 400.0 mg/kg/injection, schedule: Q01DX009 (ip), vehicle: gum acacia
[19] = dose: 50.0 mg/kg/injection, schedule: Q04DX003 (ip), vehicle: saline
[20] = dose: 100.0 mg/kg/injection, schedule: Q04DX003 (ip), vehicle: saline
[21] = dose: 200.0 mg/kg/injection, schedule: Q04DX003 (ip), vehicle: saline

Measured: T/C

Cc1cc(Br)c(C)cc1Br
inactive: dose: 50.0 mg/kg/injection, schedule: Q01DX001 (ip), vehicle: saline 100 % of control | [1] 100 % of control | [2] 98 % of control | [3] 100 % of control | [4] 103 % of control | [5] 93 % of control | [6] 98 % of control | [7] 103 % of control | [8] 90 % of control | dose: 400.0 mg/kg/injection, schedule: Q04DX003 (ip), vehicle: Klucel (hydroxypropylcellulose) (HPC) 100 % of control

COCCN=Cc1ccc(N(C)C)cc1
inactive: dose: 100.0 mg/kg/injection, schedule: Q04DX002 (ip), vehicle: saline with Tween-80 103 % of control | dose: 200.0 mg/kg/injection, schedule: Q04DX002 (ip), vehicle: saline with Tween-80 100 % of control | dose: 400.0 mg/kg/injection, schedule: Q04DX002 (ip), vehicle: saline with Tween-80 100 % of control

O=Nc1ccc(O)c2ncccc12
inactive: [3] 92 % of control | [6] 99 % of control

C[N+](C)(C)CC(=O)N/N=C\c1c(O)ccc2ccccc12
inactive: dose: 25.0 mg/kg/injection, schedule: Q04DX003 (ip), vehicle: saline with Tween-80 97 % of control | dose: 50.0 mg/kg/injection, schedule: Q04DX003 (ip), vehicle: saline with Tween-80 104 % of control | [3] 100 % of control | [9] 97 % of control | [6] 93 % of control

COc1ccc(C(=O)C(C)C=O)c(OCc2ccccc2)c1OC (centres undefined)
inactive: dose: 50.0 mg/kg/injection, schedule: Q01DX009 (ip), vehicle: saline with Tween-80 98 % of control | [10] 96 % of control | [9] 114 % of control | [11] 93 % of control | [12] 95 % of control | [13] 97 % of control | [14] 103 % of control

COc1ccc(C(=O)CC(Sc2ccccc2N)c2ccc(OC)cc2)cc1 (centres undefined)
inactive: [2] 87 % of control | [15] 98 % of control | [5] 91 % of control | [16] 95 % of control | [8] 87 % of control | [17] 113 % of control

CCCCNC(=O)NC(C)c1ccccc1 (centres undefined)
inactive: [15] 112 % of control | [16] 112 % of control | [17] 105 % of control

O=C(Nc1cccc(C(F)(F)F)c1)N(Cc1ccccc1)Cc1ccccc1
inactive: dose: 100.0 mg/kg/injection, schedule: Q01DX009 (ip), vehicle: gum acacia 108 % of control | dose: 200.0 mg/kg/injection, schedule: Q01DX009 (ip), vehicle: gum acacia 106 % of control | [18] 94 % of control

COP(=O)(OC)C(O)C(Cl)Cl (centres undefined)
inactive: dose: 100.0 mg/kg/injection, schedule: Q04DX002 (ip), vehicle: saline 115 % of control | dose: 200.0 mg/kg/injection, schedule: Q04DX002 (ip), vehicle: saline 104 % of control | dose: 400.0 mg/kg/injection, schedule: Q04DX002 (ip), vehicle: saline 104 % of control

CC(C)CCCC(C)C1CCC2C3CC=C4CC(OCCCl)CCC4(C)C3CCC12C (centres undefined)
inactive: [9] 96 % of control | [12] 96 % of control | [14] 93 % of control

ClCCCSc1ccccc1
inactive: [1] 96 % of control and 111 % of control | [4] 96 % of control and 98 % of control | [7] 97 % of control and 98 % of control

O=C(OCc1ccccc1)c1ccccc1
inactive: [10] 98 % of control | [11] 105 % of control | [13] 93 % of control

COc1ccc(C)cc1NC(=O)OCCSc1ccc(Cl)cc1
inactive: dose: 50.0 mg/kg/injection, schedule: Q01DX009 (ip), vehicle: gum acacia 97 % of control and 102 % of control | dose: 100.0 mg/kg/injection, schedule: Q01DX001 (ip), vehicle: gum acacia 95 % of control and 97 % of control | dose: 100.0 mg/kg/injection, schedule: Q04DX002 (ip), vehicle: gum acacia 97 % of control and 91 % of control | dose: 100.0 mg/kg/injection, schedule: Q04DX003 (ip), vehicle: gum acacia 96 % of control and 97 % of control | dose: 200.0 mg/kg/injection, schedule: Q01DX001 (ip), vehicle: gum acacia 95 % of control and 100 % of control | dose: 200.0 mg/kg/injection, schedule: Q04DX002 (ip), vehicle: gum acacia 93 % of control | dose: 200.0 mg/kg/injection, schedule: Q04DX003 (ip), vehicle: gum acacia 92 % of control and 96 % of control | dose: 400.0 mg/kg/injection, schedule: Q01DX001 (ip), vehicle: gum acacia 94 % of control and 97 % of control | [18] 88 % of control and 90 % of control | dose: 400.0 mg/kg/injection, schedule: Q04DX002 (ip), vehicle: gum acacia 98 % of control and 90 % of control | dose: 400.0 mg/kg/injection, schedule: Q04DX003 (ip), vehicle: gum acacia 100 % of control and 101 % of control

CCCCCCCCCCCCCCCCC(C(=O)OCC)C(=O)c1ccccc1 (centres undefined)
inactive: [9] 95 % of control | [12] 95 % of control | [14] 91 % of control

CC1=C(C#N)C2(CCN(C)CC2)C(C#N)=C(C)N1
inactive: dose: 75.0 mg/kg/injection, schedule: Q01DX001 (ip), vehicle: carboxymethylcellulose (CMC) 105 % of control | dose: 75.0 mg/kg/injection, schedule: Q01DX001 (ip), vehicle: saline 104 % of control | dose: 150.0 mg/kg/injection, schedule: Q01DX001 (ip), vehicle: carboxymethylcellulose (CMC) 109 % of control

CCSCN(C)C
inactive: dose: 50.0 mg/kg/injection, schedule: Q01DX009 (ip), vehicle: saline 102 % of control | [19] 97 % of control | [1] 113 % of control | dose: 100.0 mg/kg/injection, schedule: Q01DX009 (ip), vehicle: saline 101 % of control | [20] 103 % of control | [4] 97 % of control | [21] 105 % of control

Nc1nc2c(ncn2-c2ccccc2Cl)c(=O)[nH]1
inactive: dose: 100.0 mg/kg/injection, schedule: Q01DX001 (ip), vehicle: saline with Tween-80 95 % of control | dose: 200.0 mg/kg/injection, schedule: Q01DX001 (ip), vehicle: saline with Tween-80 92 % of control | dose: 400.0 mg/kg/injection, schedule: Q01DX001 (ip), vehicle: saline with Tween-80 100 % of control

CC1=CCCC2(CCC3(C)CC32)C1(C)C (centres undefined)
inactive: dose: 100.0 mg/kg/injection, schedule: Q01DX009 (ip), vehicle: acetone 89 % of control | dose: 200.0 mg/kg/injection, schedule: Q01DX009 (ip), vehicle: acetone 95 % of control

CCCC[n+]1cnc(N)c2[nH]cnc21
inactive: [19] 93 % of control | [20] 91 % of control | [21] 100 % of control

CC(=O)OC12C(=O)OC(=O)C1(C)C1c3ccccc3C2c2ccccc21 (centres undefined)
inactive: dose: 25.0 mg/kg/injection, schedule: Q01DX009 (ip), vehicle: Klucel (hydroxypropylcellulose) (HPC) 111 % of control | dose: 50.0 mg/kg/injection, schedule: Q01DX009 (ip), vehicle: Klucel (hydroxypropylcellulose) (HPC) 106 % of control | [2] 98 % of control

CC(=O)c1ccc(N=NC2C(=O)N(c3ccccc3)N=C2C)cc1 (centres undefined)
inactive: [1] 96 % of control | [4] 94 % of control | [7] 102 % of control

From PubChem BioAssay AID248 (DTP/NCI, 2004)
